Data as given in patent publication US11191780B2, “Extracellular matrix compositions for the treatment of cancer or immunological diseases” (ADAPTIVE BIOLOGIX, INC., priority 2015, dated 2021).
Read-outs that look alike come from different tables or passages of the source.

Key:
C6 cells = assay: C6 tumor growth in nude mice, subcutaneous co-injection; type: in vivo, mouse; conditions: vs no treatment control (FIG. 12)
Description: (§1) Tumor growth of B16 cells, C6 cells, or MDA435 cells in the presence or absence of ECM, and with or without cisplatin, were examined in nude mice. Cells, ECM and Cisplatin were injected simultaneously subcutaneously in the lower haunch of a nude mouse. Tumor growth was followed over time using photography, measurements of length and width, then finally by weight. FIGS. 8 and 9 show the growth of tumors from C6 cells in nude mice in the presence (FIG. 9) and absence (FIG. 8) of ECM on day 14 post-injection. FIGS. 10 and 11 show the growth of tumors from C6 cells in nude mice in the presence of ECM with cisplatin (FIG. 10) and cisplatin without ECM (FIG. 11) of ECM on day 14 post-injection.

MDA435 cells = assay: MDA435 tumor growth in nude mice, subcutaneous co-injection; type: in vivo, mouse
Description: as §1

lung cancer = conditions: cited from earlier work

For `N.N.[Cl][Pt][Cl]` [cisplatin], the “tumor growth over 18 days” value (C6 cells) was “no growth”, the “tumor growth over 25 days” value (MDA435 cells; vs no treatment control (FIG. 14)) was “reduction in tumor mass to zero” and the tumor growth (MDA435 cells; vs no treatment control (FIGS. 13A-D)) was “reduced or no tumor growth”.

For “MEDI4736: an engineered fully-human anti-PD-L1 antibody”, the ORR (lung cancer; PD-L1+ patients) is listed as “up to 39%”, the ORR (lung cancer; PD-L1 negative patients) is listed as 5% and the ORR (lung cancer; all the patients with lung cancer) is listed as 13%.
